Experimental findings from patent US11535621B2, “Heterobicyclic amides as inhibitors of CD38” (Ribon Therapeutics, Inc., priority 2019, dated 2022) are described below.

Molecules are shown by their SMILES. pIC50: −log10 of the molar value.

Human CD38, sequence (P28907 whole entry): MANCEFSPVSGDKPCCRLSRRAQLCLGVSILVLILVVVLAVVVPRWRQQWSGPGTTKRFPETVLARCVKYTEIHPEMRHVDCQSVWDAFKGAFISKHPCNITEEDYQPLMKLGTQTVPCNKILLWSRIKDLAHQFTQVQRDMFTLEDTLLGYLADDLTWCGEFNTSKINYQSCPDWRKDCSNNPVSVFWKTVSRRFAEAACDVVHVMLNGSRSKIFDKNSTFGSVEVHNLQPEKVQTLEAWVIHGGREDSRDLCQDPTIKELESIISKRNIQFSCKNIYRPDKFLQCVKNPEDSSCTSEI

In the test the target is Human CD38 (Homo sapiens (Human), UniProt P28907). The test can be described thus: CD38 enzyme assay. Type of test: biochemical. The conditions noted are these: 2 nM CD38, NAD+ substrate, absorbance at 405 nm. The procedure, abridged:
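IC50 values come from fitting % inhibition against compound concentration with a 4-parameter logistic, or a 3-parameter fit with top/bottom fixed at 100/0 or Hill at 1. Inhibition is scaled between DMSO wells and positive-control wells treated with a quinolinone CD38 inhibitor.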
The pIC50 is the IC50 on a negative log10 scale, so that one unit is a factor of ten. Lower therefore signals a large IC50. `COC(C)(C)[C@H]1CC[C@H](NC(=O)c2nc(-n3ccnc3)nc3cc[nH]c23)CC1` [Example 187] gave a negative logarithm of the IC50 (pIC50) of 7.00 to 8.00. `O=C(N[C@H]1CC[C@@H](NCCC(F)(F)F)CC1)c1nc(-n2ccnc2)cc2cn[nH]c12` [Example 188, 5-(1H-imidazol-1-yl)-N-((1s,4s)-4-((3,3,3-trifluoropropyl)amino)cyclohexyl)-1H-pyrazolo[3,4-c]pyridine-7-carboxamide]: the pIC50 was 6.00 to 7.00. Then `O=C(N[C@H]1CC[C@H](NCCC(F)(F)F)CC1)c1nc(-n2ccnc2)cc2cn[nH]c12` [Example 189, 5-(1H-imidazol-1-yl)-N-((1r,4r)-4-((3,3,3-trifluoropropyl)amino)cyclohexyl)-1H-pyrazolo[3,4-c]pyridine-7-carboxamide], with 7.00 to 8.00.

The compound `CN(C)CC#Cc1ccc(NC(=O)c2nc(-n3ccnc3)nc3cc[nH]c23)cn1` [Example 190, N-(6-(3-(dimethylamino)prop-1-yn-1-yl)pyridin-3-yl)-2-(1H-imidazol-1-yl)-5H-pyrrolo[3,2-d]pyrimidine-4-carboxamide] gave a pIC50 of more than 8.00. The compound `O=C(N[C@H]1CC[C@H](NCC(F)(F)F)CC1)c1nc(-n2ccnc2)nc2cn[nH]c12` [Example 191, 5-(1H-imidazol-1-yl)-N-((1r,4r)-4-((2,2,2-trifluoroethyl)amino)cyclohexyl)-1H-pyrazolo[4,3-d]pyrimidine-7-carboxamide] gave a pIC50 of 7.00 to 8.00. Regarding `C[C@H](O)[C@H]1CC[C@H](NC(=O)c2nc(-n3ccnc3)cc3cn[nH]c23)CC1` [Example 192a, N-((1S,4r)-4-((S)-1-hydroxyethyl)cyclohexyl)-5-(1H-imidazol-1-yl)-1H-pyrazolo[3,4-c]pyridine-7-carboxamide], the pIC50 was more than 8.00. In the case of `C[C@@H](O)[C@H]1CC[C@H](NC(=O)c2nc(-n3ccnc3)cc3cn[nH]c23)CC1` [Example 192b, N-((1R,4r)-4-((R)-1-hydroxyethyl)cyclohexyl)-5-(1H-imidazol-1-yl)-1H-pyrazolo[3,4-c]pyridine-7-carboxamide] it was more than 8.00.

`CC(F)(F)CN[C@H]1CC[C@H](NC(=O)c2nc(-n3ccnc3)cc3cn[nH]c23)CC1` [Example 193, N-((1r,4r)-4-((2,2-difluoropropyl)amino)cyclohexyl)-5-(1H-imidazol-1-yl)-1H-pyrazolo[3,4-c]pyridine-7-carboxamide] showed a pIC50 of 7.00 to 8.00. In the case of `CC(F)(F)CN[C@H]1CC[C@@H](NC(=O)c2nc(-n3ccnc3)cc3cn[nH]c23)CC1` [Example 194, N-((1s,4s)-4-((2,2-difluoropropyl)amino)cyclohexyl)-5-(1H-imidazol-1-yl)-1H-pyrazolo[3,4-c]pyridine-7-carboxamide] it was 6.00 to 7.00; in that of `O=C(N[C@H]1CC[C@H](NCC(F)F)CC1)c1nc(-n2ccnc2)cc2cn[nH]c12` [Example 195, N-((1r,4r)-4-((2,2-difluoroethyl)amino)cyclohexyl)-5-(1H-imidazol-1-yl)-1H-pyrazolo[3,4-c]pyridine-7-carboxamide], 7.00 to 8.00. Compound `COCCO[C@H]1CC[C@H](NC(=O)c2nc(-n3ccnc3)cc3cn(C)nc23)CC1` [Example 196, 5-(1H-imidazol-1-yl)-N-((1r,4r)-4-(2-methoxyethoxy)cyclohexyl)-2-methyl-2H-pyrazolo[3,4-c]pyridine-7-carboxamide] showed a pIC50 of 7.00 to 8.00.

Consider `COCCO[C@H]1CC[C@H](NC(=O)c2nc(-n3ccnc3)cc3cnn(C)c23)CC1` [Example 197, 5-(1H-imidazol-1-yl)-N-((1r,4r)-4-(2-methoxyethoxy)cyclohexyl)-1-methyl-1H-pyrazolo[3,4-c]pyridine-7-carboxamide], for which the pIC50 is 7.00 to 8.00.

Compound `COCCO[C@H]1CC[C@H](NC(=O)c2nc(-n3ccnc3)cc3ccsc23)CC1` [Example 198, 5-(1H-imidazol-1-yl)-N-((1r,4r)-4-(2-methoxyethoxy)cyclohexyl)thieno[2,3-c]pyridine-7-carboxamide] showed a pIC50 of 7.00 to 8.00. In turn, `CNC(=O)C[C@H]1CC[C@H](NC(=O)c2nc(-n3ccnc3)cc3cn[nH]c23)CC1` [Example 199, 5-(1H-imidazol-1-yl)-N-((1r,4r)-4-(2-(methylamino)-2-oxoethyl)cyclohexyl)-1H-pyrazolo[3,4-c]pyridine-7-carboxamide] showed a pIC50 of 7.00 to 8.00. In turn, `O=C(N[C@H]1CC[C@H](CCO)CC1)c1nc(-n2ccnc2)nc2cc[nH]c12` [Example 200, N-((1r,4r)-4-(2-hydroxyethyl)cyclohexyl)-2-(1H-imidazol-1-yl)-5H-pyrrolo[3,2-d]pyrimidine-4-carboxamide] had a pIC50 of more than 8.00. As to `CN(C)C(=O)CO[C@H]1CC[C@H](NC(=O)c2nc(-n3ccnc3)nc3cn[nH]c23)CC1` [Example 201, N-((1r,4r)-4-(2-(dimethylamino)-2-oxoethoxy)cyclohexyl)-5-(1H-imidazol-1-yl)-1H-pyrazolo[4,3-d]pyrimidine-7-carboxamide], the negative-log IC50 (pIC50) was 7.00 to 8.00. Compound `CN(C)C(=O)CO[C@H]1CC[C@H](NC(=O)c2nc(-n3ccnc3)cc3cn[nH]c23)CC1` [Example 202, N-((1r,4r)-4-(2-(dimethylamino)-2-oxoethoxy)cyclohexyl)-5-(1H-imidazol-1-yl)-1H-pyrazolo[3,4-c]pyridine-7-carboxamide] had a negative logarithm of the IC50 (pIC50) of 7.00 to 8.00. Then `O=C(Nc1ccc(OCCN2CCCC2)nc1)c1nc(-n2ccnc2)cc2cn[nH]c12` [Example 203, 5-(1H-imidazol-1-yl)-N-(6-(2-(pyrrolidin-1-yl)ethoxy)pyridin-3-yl)-1H-pyrazolo[3,4-c]pyridine-7-carboxamide], with 7.00 to 8.00; and `O=C(N[C@H]1CC[C@H](N2CC(F)(F)C2)CC1)c1nc(-n2ccnc2)nc2cc[nH]c12` [Example 204, N-((1r,4r)-4-(3,3-difluoroazetidin-1-yl)cyclohexyl)-2-(1H-imidazol-1-yl)-5H-pyrrolo[3,2-d]pyrimidine-4-carboxamide], with 7.00 to 8.00. In the case of `N#Cc1ccc(NC(=O)c2nc(-n3ccnc3)cc3cn[nH]c23)cc1` [Example 205, N-(4-cyanophenyl)-5-(1H-imidazol-1-yl)-1H-pyrazolo[3,4-c]pyridine-7-carboxamide] it was more than 8.00; in that of `O=C(N[C@H]1CC[C@H](NCC(F)F)CC1)c1nc(-n2ccnc2)nc2cn[nH]c12` [Example 206, N-((1r,4r)-4-(2,2-difluoroethylamino)cyclohexyl)-5-(1H-imidazol-1-yl)-1H-pyrazolo[4,3-d]pyrimidine-7-carboxamide], 7.00 to 8.00. As for `CC(=O)NC[C@H]1CC[C@H](NC(=O)c2nc(-n3ccnc3)cc3cn[nH]c23)CC1` [Example 209, N-((1r,4r)-4-(acetamidomethyl)cyclohexyl)-5-(1H-imidazol-1-yl)-1H-pyrazolo[3,4-c]pyridine-7-carboxamide], the pIC50 is 7.00 to 8.00. In the case of `CC(C)(O)[C@H]1CC[C@H](NC(=O)c2nc(-n3ccnc3)nc3ccsc23)CC1` [Example 210, N-((1r,4r)-4-(2-hydroxypropan-2-yl)cyclohexyl)-2-(1H-imidazol-1-yl)thieno[3,2-d]pyrimidine-4-carboxamide] it was more than 8.00. `O=C(Nc1ccc2c(c1)CNC2)c1nc(-n2ccnc2)nc2cc[nH]c12` [Example 211, 2-(1H-imidazol-1-yl)-N-(isoindolin-5-yl)-5H-pyrrolo[3,2-d]pyrimidine-4-carboxamide] gave a pIC50 of more than 8.00. `N#Cc1ccc(O[C@H]2CC[C@H](NC(=O)c3nc(-n4ccnc4)nc4cc[nH]c34)CC2)cc1` [Example 212, N-((1r,4r)-4-(4-cyanophenoxy)cyclohexyl)-2-(1H-imidazol-1-yl)-5H-pyrrolo[3,2-d]pyrimidine-4-carboxamide] showed a pIC50 of more than 8.00. `CS(=O)(=O)[C@H]1CC[C@H](NC(=O)c2nc(-n3ccnc3)nc3cc[nH]c23)CC1` [Example 213, 2-(1H-imidazol-1-yl)-N-((1r,4r)-4-(methylsulfonyl)cyclohexyl)-5H-pyrrolo[3,2-d]pyrimidine-4-carboxamide] had a pIC50 of 7.00 to 8.00. In the case of `N#CCO[C@H]1CC[C@H](NC(=O)c2nc(-n3ccnc3)nc3cn[nH]c23)CC1` [Example 214, N-((1r,4r)-4-(cyanomethoxy)cyclohexyl)-5-(1H-imidazol-1-yl)-1H-pyrazolo[4,3-d]pyrimidine-7-carboxamide] it was more than 8.00; in that of `N#CCO[C@H]1CC[C@H](NC(=O)c2nc(-n3ccnc3)cc3cn[nH]c23)CC1` [Example 215, N-((1r,4r)-4-(cyanomethoxy)cyclohexyl)-5-(1H-imidazol-1-yl)-1H-pyrazolo[3,4-c]pyridine-7-carboxamide], more than 8.00. Then `O=C(N[C@H]1CC[C@H](NC2COC2)CC1)c1nc(-n2ccnc2)nc2cc[nH]c12` [Example 216, 2-(1H-imidazol-1-yl)-N-((1r,4r)-4-(oxetan-3-ylamino)cyclohexyl)-5H-pyrrolo[3,2-d]pyrimidine-4-carboxamide], with 7.00 to 8.00; and `CNC(=O)[C@H]1CC[C@H](NC(=O)c2nc(-n3ccnc3)cc3cn[nH]c23)CC1` [Example 217, 5-(1H-imidazol-1-yl)-N-((1r,4r)-4-(methylcarbamoyl)cyclohexyl)-1H-pyrazolo[3,4-c]pyridine-7-carboxamide], with more than 8.00; and `CN(CC(F)(F)F)[C@H]1CC[C@H](NC(=O)c2nc(-n3ccnc3)cc3cn[nH]c23)CC1` [Example 218, 5-(1H-imidazol-1-yl)-N-((1r,4r)-4-(methyl(2,2,2-trifluoroethyl)amino)cyclohexyl)-1H-pyrazolo[3,4-c]pyridine-7-carboxamide], with 7.00 to 8.00. Take `N#CC[C@H]1CC[C@H](NC(=O)c2nc(-n3ccnc3)cc3cn[nH]c23)CC1` [Example 219, N-((1r,4r)-4-(cyanomethyl)cyclohexyl)-5-(1H-imidazol-1-yl)-1H-pyrazolo[3,4-c]pyridine-7-carboxamide]: the pIC50 is more than 8.00. As to `O=C(N[C@H]1CC[C@H](NCC(F)(F)F)CC1)c1nc(-n2ccnc2)nc2ccsc12` [Example 220, 2-(1H-imidazol-1-yl)-N-((1r,4r)-4-(2,2,2-trifluoroethylamino)cyclohexyl)thieno[3,2-d]pyrimidine-4-carboxamide], the pIC50 was 7.00 to 8.00.
